The results in this text go back to US20200199170A1, “COMPOUNDS HAVING ANTI-INFLAMMATORY AND ANTI-OXIDANT ACTIVITY” (UNIVERSITÀ DEGLI STUDI DI FERRARA, priority 2015, published 2020).

For data set [1], the system named is cell production of interleukin-1 (IL-1α) in human keratinocytes stimulated with TNF-α. Kind of data set: Anti-inflammatory activity: IL-1α production in keratinocytes stimulated with TNF-α. It is filed as cell-based. As to conditions: human keratinocytes pretreated 24 hours with 10 μM solution, then TNF-α; negative control DMSO; FIG. 1A. The method, then: (§1) The cells (human keratinocytes acquired from Life Technologies) have been pretreated for 24 hours with 1A or 1B and subsequently stimulated with cytokines, otherwise referred to as Tumor Necrosis Factor, TNF-α, in order to mimic an inflammatory process.
TNF-α induces inflammation in the cells treated, that is to say, the cell production of interleukin-1 (IL-1α).

In data set [2] the test system is IL-1α gene expression in human keratinocytes. Kind of data set: Real-time PCR quantification of gene expression in TNF-α stimulated keratinocytes. It is filed as cell-based. The conditions noted are these: keratinocytes pre-treated with compound, then TNF-α; FIG. 1B. As to the method: as §1
The cell response has also been set out by means of real-time PCR measurements, which are intended to quantify the gene expression (the production of IL-1α is an activity that is codified by specific genes). In FIG. 1B, the so-called “control” is the response of the non-stimulated cells (absence of inflammatory process), “TNF-α” is the response of the cells stimulated with cytokine, while “1A+TNF-α” and “1B+TNF-α” are the responses obtained with the cells pre-treated with 1A and 1B, respectively.
For orientation: In qPCR the cycle at which signal appears reflects the starting amount.

Data set [3] in a line: Photochemiluminescence antioxidant test (Photochem, luminol). As to conditions: superoxide radical, FIG. 2. The method, then: For the study of the antioxidant activity, use was made of a photochemiluminescence test that allows evaluating the antioxidant capacity of the tested molecules with respect to the superoxide radical (O2^−); the latter is photochemically generated by means of UV radiations. The marker used is luminol, a molecule that is capable of emitting chemiluminescence when it is oxidized by free radicals; such emission of light is then measured by means of a suitable instrument (Analityk Jena AG: Photochem®—Antioxidants and Free Radicals). The presence of antioxidant substances in the reaction admixture deactivates the radical species by inhibiting the emission of chemiluminescence. The analysis is very rapid and sensitive. […]
Since the antioxidant activity cannot be measured in absolute terms, the common practice is to compare the activity of a compound with that of molecules having an antioxidant capacity that is already known, such as, for example, tocopherol (otherwise known as vitamin E). By comparing the recorded values with the measurements relating to the standard reference molecules ([…]), the antioxidant capacity of the product being examined is obtained.

Another data set relates to neuronal cells. In words: Neuro-protective activity, MTT assay, glutamate-induced death. It is filed as cell-based. As to conditions: FIG. 3; for neuro-protective activity on the death of neuronal cells caused by glutamate: MTT assay, pre-treatment before glutamate; for viability of the cells: neuronal cells, pre-treatment with compound then glutamate, MTT.

Take `Cc1ccc(O)c2c1CCC1C3CC[C@](O)(C(=O)CO)[C@@]3(C)CC(=O)[C@@]21O` (stereo partly shown) [1A]: the “cell production of IL-1α” value in data set [1] is given as “comparable with that of the negative control”. Further, the “gene expression (real-time PCR)” value in data set [2] was “absence of gene expression”. The “moles having the antioxidant activity of 1 mole of ascorbic acid” value in data set [3] was 1.09 mol. Besides, in the data set on neuronal cells, the “neuro-protective activity on the death of neuronal cells caused by glutamate” value is on record as “have a neuro-protective activity” and the “viability of the cells” value is on record as around 80%.

Regarding `Cc1ccc(O)c2c1CCC1C3CC[C@](O)(C(O)CO)[C@@]3(C)CC(=O)[C@@]21O` (stereo partly shown) [1B], the “cell production of IL-1α” value in data set [1] is listed as “comparable with that of the negative control”. Besides, the “gene expression (real-time PCR)” value in data set [2] was “absence of gene expression”. The “moles having the antioxidant activity of 1 mole of ascorbic acid” value in data set [3] was 1.18 mol. In the data set on neuronal cells, the “neuro-protective activity on the death of neuronal cells caused by glutamate” value was “have a neuro-protective activity” and the “viability of the cells” value is on record as around 80%.
